From PMC8760323, “Single-chain tandem macrocyclic peptides as a scaffold for growth factor and cytokine mimetics” (Communications Biology, 2022)

How the values were obtained:
Type in all cases: cell-based, human
BM-hMSCs [1] = assay: Proliferation assay, BM-hMSCs (WST-8); conditions: 3 days, 1.3 nM rhHGF or 32 nM aMD4dY-PA22; for WST-8 absorbance, Normalized: normalized by mock
Method: BM-hMSC cells at a density of 2500 cells/well were seeded on a 96-well cell culture plate with DMEM supplemented with 10% FBS with or without 1.3 nM rhHGF or 32 nM aMD4dY-PA22. After 3 days of culture in 5% CO2 at 37 °C, Cell Counting Reagent SF (Dojindo Laboratories, Japan) was added to the cells. After 1 h incubation, cell numbers were quantified by detection of absorbance at 450 nm using the Benchmark Plus plate reader (Bio-Rad Laboratories, Hercules, CA, USA).

HuCCT1 cells [2] = assay: Proliferation assay, HuCCT1 cells; conditions: 5 days, 0.44 nM rhHGF or […] aMD4dY-PA22; for Relative cell growth: normalized by mock
Method: The activity of aMD4dY-PA22 against HuCCT1 cell and BM-hMSC proliferation was evaluated. HuCCT1 cells at a density of 5000 cells/well were seeded on a 24-well cell culture plate with RPMI 1640 medium supplemented with 5% FBS with or without 0.44 nM rhHGF or 6.3 nM aMD4dY-PA22. After 5 days of culture in 5% CO2 at 37 °C, the cells were detached by 0.25% trypsin/ethylenediaminetetraacetic acid (EDTA; Thermo Fisher Scientific) and counted using a Countess automated cell counter (Thermo Fisher Scientific).

BM-hMSCs [3] = assay: Flow cytometry of MSC surface markers; conditions: for surface marker expression of stimulated BM-hMSCs: 3 days; for CD45 Positive (%) / CD90 Positive (%): flow cytometry, Fig. S11b
Method: The marker expression of BM-hMSCs unstimulated or stimulated using 1.3 nM rhHGF or 32 nM aMD4dY-PA22 for 3 days were analyzed via flow cytometry. Harvested cells were blocked with PBS supplemented with Human TruStain FcX (Biolegend) for 10 min on ice. […] For the isotype controls, 1:10 diluted PE mouse IgG1 k Isotype (Biolegend) and FITC mouse IgG1 k Isotype (Biolegend) were utilized. After washing two times with a cell stain buffer, cells were analyzed using Attune NxT flow cytometer (Thermo Fisher Scientific).

HuCCT1 cells [4] = assay: Scratch assay (wound healing); conditions: for wound healing compared with no stimulation: 0.41 nM rhHGF or 16 nM aMD4dY-PA22; for Closure rate / Wound closure: 1 to 7 h, 0.41 nM HGF or 16 nM aMD4dY-PA22
Method: HuCCT1 cells at a density of 50,000 cells/well in RPMI 1640 medium supplemented with 10% FBS were added to a 96-well cell culture plate and incubated overnight in 5% CO2 at 37 °C to form cellular monolayers. The centers of the cellular monolayers were scratched with 1000 μL micropipette tips and incubated in RPMI 1640 medium supplemented with 0.5% FBS with or without 0.41 nM HGF or 16 nM aMD4dY-PA22 in 5% CO2 at 37 °C. Images of the cells were captured every hour using BioStudio-T (Nikon, Tokyo, Japan). The average wound healing rate was calculated as [(width of the wound 1 h after scratching) − (width of the wound […])]/6.

BM-hMSCs [5] = assay: Cytokine array of conditioned media; conditions: 3 days
Method: The conditioned media (supernatant) of BM-hMSCs unstimulated or stimulated with 1.3 nM rhHGF or 32 nM aMD4dY-PA22 for 3 days were filtered using Millex-GV 0.22 µm PVDF membrane filter (Millipore) and analyzed using Human Cytokine Array C5 (Ray Biotech) according to the manufacturer’s instructions. Chemiluminescence was detected using Amersham Imager 600 (Cytiva).

Met = assay: SRE reporter assay for HGF activity (Erk-SRE, HEK293 cells); conditions: N=1; for Normalized Firefly/Renilla: Fig. S6b/c, 420 nM rhHGF
Method: The Met-activating ability of HGF mimetic STaMPtides was evaluated by SRE reporter assay using the SRE reporter vector (QIAGEN, Hilden, Germany) according to the manufacturer’s instructions. Briefly, 1 μL of the SRE reporter vector was mixed with 0.6 μL of Attractene Transfection Reagent (QIAGEN) in 50 μL of Opti-MEM medium (Thermo Fisher Scientific) to form a transfection complex. Next, HEK293 cells at a density of 40,000 cells/well were seeded on 96-well cell culture plates with the transfection complex and incubated overnight in 5% CO2 at 37 °C. The cells were starved with Opti-MEM containing 0.5% FBS, 1% non-essential amino acid solution, and penicillin-streptomycin and incubated at 37 °C for 4 h. Next, the cells were stimulated by rhHGF, purified HGF mimetic STaMPtides, monomeric aMD4dY, or decellularized supernatant overnight in a 5% CO2 incubator at 37 °C. The signal intensity was detected using the dual-luciferase reporter assay system (Promega Corporation) and a Nivo plate reader (PerkinElmer, Inc., Waltham, MA, USA). Reporter activity was calculated as (luminescence intensity of Firefly luciferase)/(luminescence intensity of Renilla luciferase) and normalized by that without a stimulant in order to determine the relative reporter activity.

hPBMCs = assay: Colony-forming assay; conditions: sheet Fig. 4, Fig. 4b
Method: Next, 1.1 mL of the mixture was seeded in a 6-well cell culture plate and cultured for 13 days in 5% CO2 at 37 °C. At day 13, colony numbers were counted, and images were taken by inverted microscopy and BZ-X fluorescence microscopy.

RTKs = assay: Phospho-RTK array; conditions: 1.3 nM rhHGF or 32 nM aMD4dY-PA22, 10 min
Method: Ligand specificity against RTKs was evaluated using the Proteome Profiler Human Phospho-RTK Array Kit (R&D Systems). Confluent HEK293 cells in a 10 cm cell culture dish were starved in DMEM supplemented with 0.5% FBS and penicillin-streptomycin for 24 h. The starved cells were stimulated by 1.3 nM rhHGF or 32 nM aMD4dY-PA22 for 10 min, rinsed once with PBS, and lysed with 1 mL of lysis buffer 17 (R&D Systems) supplemented with a protease inhibitor cocktail (Nacalai Tesque). Lysates were analyzed using the Proteome Profiler Human Phospho-RTK Array Kit (R&D Systems) according to the manufacturer’s instructions. Chemiluminescence was detected using the Molecular Imager ChemiDoc XRS System (Bio-Rad Laboratories).

Row | Substance | growth of BM-hMSCs (BM-hMSCs [1]) | WST-8 absorbance, Normalized (BM-hMSCs [1]; N 1) | WST-8 absorbance, Normalized (BM-hMSCs [1]; N 2) | WST-8 absorbance, Normalized (BM-hMSCs [1]; N 3) | proliferation compared to the unstimulated condition (HuCCT1 cells [2]) | Relative cell growth (HuCCT1 cells [2]; N 1) | Relative cell growth (HuCCT1 cells [2]; N 2) | Relative cell growth (HuCCT1 cells [2]; N 3) | surface marker expression of stimulated BM-hMSCs (BM-hMSCs [3]) | CD45 Positive (%) (BM-hMSCs [3]; replicate 1) | CD90 Positive (%) (BM-hMSCs [3]; replicate 1) | CD45 Positive (%) (BM-hMSCs [3]; replicate 2) | CD90 Positive (%) (BM-hMSCs [3]; replicate 2) | wound healing compared with no stimulation (HuCCT1 cells [4]) | Closure rate (HuCCT1 cells [4]; replicate 1) | Wound closure (HuCCT1 cells [4]; replicate 1) | Closure rate (HuCCT1 cells [4]; replicate 2) | Wound closure (HuCCT1 cells [4]; replicate 2) | Closure rate (HuCCT1 cells [4]; replicate 3) | Wound closure (HuCCT1 cells [4]; replicate 3) | also measured
1 | AET - CRQFNRRTHEVWNLDCG - AAPAAPA PAAPAAPA PAAPAA PG - CRQFNRRTHEVWNLDC (bicyclic or more) [aMD4dY-PA22, HGF mimetic STaMPtide, two aMD4dY macrocycles with a 22-amino-acid PA linker, secreted by C. glutamicum] | slightly promoted proliferation | 1.155 | 1.175 | 1.237 | twofold | 2.429 | 2.429 | 2.571 | expressed hMSC positive markers (CD105, CD73, CD90) and no negative markers (CD45, CD34) | 0.665% | 99.857% | 1.718% | 99.76% | 1.8 fold | 104.419 μm/h | 626.514 μm | 110.38 μm/h | 662.279 μm | 95.5447 μm/h | 573.268 μm | Closure rate (HuCCT1 cells [4]; replicate 4): 95.787 μm/h; Wound closure (HuCCT1 cells [4]; replicate 4): 574.722 μm; cytokines and growth factors in conditioned supernatant (BM-hMSCs [5]): to the same extent as unstimulated parental BM-hMSCs; Normalized F/R (Met; Fig. S6d, supernatant, dilution 10): 4.6947; Normalized F/R (Met; Fig. S6d, supernatant, dilution 30): 5.172; Normalized F/R (Met; Fig. S6d, supernatant, dilution 90): 5.6777; Normalized F/R (Met; Fig. S6d, supernatant, dilution 810): 3.099; Normalized F/R (Met; Fig. S6d, supernatant, dilution 2430): 1.722; Erk-SRE reporter activity of decellularized supernatants (Met; rapid screening without purification): highest activity; Colony number (hPBMCs; N 1): 104.419; Colony number (hPBMCs; N 2): 110.38; Colony number (hPBMCs; N 3): 95.5447; Colony number (hPBMCs; N 4): 95.787; selectivity against RTKs (RTKs): highly Met-selective
2 | rhHGF: recombinant human HGF (R&D Systems) | slightly promoted proliferation | 1.1816 | 1.335 | 1.247 | twofold | 2.286 | 2.429 | 2.071 | expressed hMSC positive markers (CD105, CD73, CD90) and no negative markers (CD45, CD34) | 1.409% | 99.927% | 1.405% | 99.878% | 1.6 fold | 88.8457 μm/h | 533.074 μm | 100.748 μm/h | 604.487 μm | 98.5177 μm/h | 591.106 μm | Closure rate (HuCCT1 cells [4]; replicate 4): 94.0632 μm/h; Wound closure (HuCCT1 cells [4]; replicate 4): 564.379 μm; cytokines and growth factors in conditioned supernatant (BM-hMSCs [5]): to the same extent as unstimulated parental BM-hMSCs; Normalized F/R (Met; Fig. S6a, 2.008 pM): 0.9952; Normalized F/R (Met; Fig. S6a, 10.04 pM): 0.9963; Normalized F/R (Met; Fig. S6a, 50.19 pM): 1.192; Normalized F/R (Met; Fig. S6a, 250.9 pM): 3.768; Normalized F/R (Met; Fig. S6a, 1.25471e-9 M): 8.884; Normalized Firefly/Renilla (Met; dilution 1000): 9.87; Normalized Firefly/Renilla (Met; dilution 10000): 1.622; Colony number (hPBMCs; N 1): 88.8457; Colony number (hPBMCs; N 2): 100.748; Colony number (hPBMCs; N 3): 98.5177; Colony number (hPBMCs; N 4): 94.0632; selectivity against RTKs (RTKs): highly Met-selective
